Read-outs that look alike come from different tables or passages of the source.
What was measured:
DENV-2 16681 strain = experiment: DENV-2 antiviral assay (eGFP fluorescence, Vero cells); type: cell-based, Dengue virus; settings: DENV-2 16681 eGFP, MOI 0.5, 3 days
Description: The antiviral activity of all the compounds of the invention was tested against the DENV-2 16681 strain which was labeled with enhanced green fluorescent protein (eGPF; Table 1). The culture medium consists of minimal essential medium supplemented with 2% of heat-inactivated fetal calf serum, 0.04% gentamycin (50 mg/mL) and 2 mM of L-glutamine. Vero cells, obtained from ECACC, were suspended in culture medium and 25 μL was added to 384-well plates (2500 cells/well), which already contain the antiviral compounds. Typically, these plates contain a 5-fold serial dilution of 9 dilution steps of the test compound at 200 times the final concentration in 100% DMSO (200 nL). […] Finally, each plate contains wells which are assigned as virus controls (containing cells and virus in the absence of compound), cell controls (containing cells in the absence of virus and compound) and medium controls (containing medium in the absence of cells, virus and compounds). To the wells assigned as medium control, 25 μL of culture medium was added instead of Vero cells. Once the cells were added to the plates, the plates were incubated for 30 minutes at room temperature to allow the cells to distribute evenly within the wells. Next, the plates were incubated in a fully humidified incubator (37° C., 5% CO2) until the next day. Then, DENV-2 strain 16681, labeled with eGFP, was added at a multiplicity of infection (MOI) of 0.5. Therefore, 15 μL of virus suspension was added to all the wells containing test compound and to the wells assigned as virus control. In parallel, 15 μL of culture medium was added to the medium and cell controls. Next, the plates were incubated for 3 days in a fully humidified incubator (37° C., 5% CO2). At the day of the read out, the eGFP fluorescence was measured using an automated fluorescence microscope at 488 nm (blue laser). Using an in-house LIMS system, inhibition dose response curves for each compound were calculated and the half maximal effective concentration (EC50) was determined. Therefore, the percent inhibition (I) for every test concentration is calculated using the following formula: I=100*(ST−SCC)/(SVC−SCC); ST, SCC and SVC are the amount of eGFP signal in the test compound, cell control and virus control wells, respectively. The EC50 represents the concentration of a compound at which the virus replication is inhibited with 50%, as measured by a 50% reduction of the eGFP fluorescent intensity compared to the virus control. The EC50 is calculated using linear interpolation.

in vitro [1] = settings: African green monkey
DENV-4 strain H241 = experiment: Tetravalent RT-qPCR assay Protocol A, serotype 4 H241; type: cell-based; settings: Dengue virus
Description: (§1) The antiviral activity of the compounds of the invention was tested against DENV-1 strain TC974#666 (NCPV; Table 6), DENV-2 strain 16681 (Table 7), DENV-3 strain H87 (NCPV; Table 8) and DENV-4 strains H241 (NCPV; Table 9A) and SG/06K2270DK1/2005 (Eden; Table 9B) in a RT-qPCR assay. Therefore, Vero cells were infected with either DENV-1, or -2, or -3, or -4 in the presence or absence of test compounds. At day 3 post-infection, the cells were lysed and cell lysates were used to prepare cDNA of both a viral target (the 3′UTR of DENV; Table 2) and a cellular reference gene (β-actin, Table 2). Subsequently, a duplex real time PCR was performed on a Lightcycler480 instrument. The generated Cp value is inversely proportional to the amount of RNA expression of these targets. Inhibition of DENV replication by test compound results in a shift of Cp's for the 3′UTR gene. On the other hand, if a test compound is toxic to the cells, a similar effect on β-actin expression will be observed. The comparative ΔΔCp method is used to calculate EC50, which is based on the relative gene expression of the target gene (3′UTR) normalized with the cellular housekeeping gene (β-actin).
(§2) The culture medium consisted of minimal essential medium supplemented with 2% of heat-inactivated fetal calf serum, 0.04% gentamycin (50 mg/mL) and 2 mM of L-glutamine. Vero cells, obtained from ECACC, were suspended in culture medium and 75 μL/well was added in 96-well plates (10000 cells/well), which already contain the antiviral compounds. […] In addition, each plate contains wells which are assigned as virus controls (containing cells and virus in the absence of compound) and cell controls (containing cells in the absence of virus and compound). Once the cells were added in the plates, the plates were incubated in a fully humidified incubator (37° C., 5% CO2) until the next day. Dengue viruses serotype-1, 2, 3 and 4 were diluted in order to obtain a Cp of ˜22-24 in the assay. Therefore, 25 μL of virus suspension was added to all the wells containing test compound and to the wells assigned as virus control. In parallel, 25 μL of culture medium was added to the cell controls. Next, the plates were incubated for 3 days in a fully humidified incubator (37° C., 5% CO2). After 3 days, the supernatant was removed from the wells and the cells were washed twice with ice-cold PBS (˜100 μL). The cell pellets within the 96-well plates were stored at −80° C. for at least 1 day. Next, RNA was extracted using the Cells-to-CT™ lysis kit, according to the manufacturer's guideline (Life Technologies). The cell lysates can be stored at −80° C. or immediately used in the reverse transcription step.
(§3) In preparation of the reverse transcription step, mix A (table 3A) was prepared and 7.57 μL/well was dispensed in a 96-well plate. After addition of 5 μL of the cell lysates, a five minute denaturation step at 75° C. was performed (table 3B). Afterwards, 7.43 μL of mix B was added (table 3C) and the reverse transcription step was initiated (table 3D) to generate cDNA.
(§4) Finally, a RT-qPCR mix was prepared, mix C (table 4A), and 22.02 μL/well was dispensed in 96-well LightCycler qPCR plates to which 3 μL of cDNA was added and the qPCR was performed according to the conditions in table 4B on a LightCycler 480.
(§5) Using the LightCycler software and an in-house LIMS system, dose response curves for each compound were calculated and the half maximal effective concentration (EC50) and the half maximal cytotoxic concentration (CC50) were determined.

DENV-3 strain H87 = experiment: Tetravalent RT-qPCR assay Protocol A, serotype 3; type: cell-based; settings: Dengue virus, DENV3, 72 h, RT-qPCR serotype 3 H87, Vero cells, day 3
Description: as §1, §2, §3, §4, §5

in vitro [2] = type: cell-based; settings: African green monkey, CC50
Description: as §1, §2, §5

DENV-2 strain 16681 = experiment: Tetravalent RT-qPCR assay Protocol A, serotype 2; type: cell-based; settings: Dengue virus
Description: as §1, §2, §3, §4, §5

DENV-1 strain TC974#666 = experiment: Tetravalent RT-qPCR assay Protocol A, serotype 1; type: cell-based; settings: Dengue virus, DENV1, 72 h, RT-qPCR serotype 1 TC974#666, Vero cells, day 3
Description: as §1, §2, §3, §4, §5

[3] = system: DENV-4 strain SG/06K2270DK1/2005 (Eden); experiment: Tetravalent RT-qPCR assay Protocol A, serotype 4 EDEN; type: cell-based; settings: Dengue virus, DENV4, Vero, 72 h
Description: as §1, §2, §3, §4, §5

Vero cells = settings: African green monkey
[4] = Dengue virus, DENV2, Vero, 72 h
[5] = DENV4, 72 h, Protocol A, RT-qPCR serotype 4 H241, Vero cells, day 3, read-out: EC50
[6] = DENV2, 72 h, Protocol A, RT-qPCR serotype 2 16681, Vero cells, day 3, read-out: EC50

Q: Which results are given for `COc1cc(NC(C(=O)c2c[nH]c3c(C)c(F)ccc23)c2ccc(Cl)cc2OC)cc(S(C)(=O)=O)c1` (racemic) [Compound 2, 2-(4-chloro-2-methoxyphenyl)-1-(6-fluoro-7-methyl-1H-indol-3-yl)-2-((3-methoxy-5-(methylsulfonyl)phenyl)amino)ethanone]?
A: EC50 (DENV-2 16681 strain; [4]): 0.6 nM; CC50 (in vitro [1]): 5000 nM

Q: Which results are given for `COc1cc(NC(C(=O)c2c[nH]c3cc(OC)ccc23)c2ccc(Cl)cc2OC)cc(S(C)(=O)=O)c1` (racemic) [Compound 3, 2-(4-chloro-2-methoxyphenyl)-1-(6-methoxy-1H-indol-3-yl)-2-((3-methoxy-5-(methylsulfonyl)phenyl)amino)ethanone]?
A: EC50 (DENV-2 16681 strain; [4]): 0.58 nM; CC50 (in vitro [1]): > 11000 nM

Q: With `COc1cc(NC(C(=O)c2c[nH]c3cc(OC)c(C)cc23)c2ccc(Cl)cc2OC)cc(S(C)(=O)=O)c1` (racemic) [Compound 4, 2-(4-chloro-2-methoxyphenyl)-2-((3-methoxy-5-(methyl-sulfonyl)phenyl)amino)-1-(6-methoxy-5-methyl-1H-indol-3-yl)ethanone] as the compound, how does the EC50 (DENV-2 16681 strain; [4]) read?
A: 0.39 nM

Q: What about the CC50 (in vitro [1]) of the same compound?
A: 5900 nM

Q: Which EC50 (DENV-2 16681 strain; [4]) does the source give for `COc1cc(NC(C(=O)c2c[nH]c3cc(OC)c(F)cc23)c2ccc(Cl)cc2OC)cc(S(C)(=O)=O)c1` (racemic) [Compound 5, 2-(4-chloro-2-methoxyphenyl)-1-(5-fluoro-6-methoxy-1H-indol-3-yl)-2-((3-methoxy-5-(methylsulfonyl)phenyl)amino)ethanone] here?
A: 0.62 nM

Q: And the CC50 (in vitro [1])?
A: 5500 nM

Q: What does the source list for `COc1cc(NC(C(=O)c2c[nH]c3cc(F)c(C)cc23)c2ccc(Cl)cc2OC)cc(S(C)(=O)=O)c1` (racemic) [Compound 7, 2-(4-chloro-2-methoxyphenyl)-1-(6-fluoro-5-methyl-1H-indol-3-yl)-2-((3-methoxy-5-(methylsulfonyl)phenyl)amino)ethanone]?
A: EC50 (DENV-2 16681 strain; [4]): 0.47 nM; CC50 (in vitro [1]): 3200 nM

Q: For `COc1cc(NC(C(=O)c2c[nH]c3ccc(C(F)(F)F)cc23)c2ccc(Cl)cc2OC)cc(S(C)(=O)=O)c1` (racemic) [Compound 8, 2-(4-chloro-2-methoxyphenyl)-2-((3-methoxy-5-(methyl-sulfonyl)phenyl)amino)-1-(5-(trifluoromethyl)-1H-indol-3-yl)ethanone], which EC50 (DENV-2 16681 strain; [4]) is on record?
A: 0.13 nM

Q: What about the CC50 (in vitro [1]) of the same compound?
A: 2900 nM

Q: For `COc1cc(NC(C(=O)c2c[nH]c3ccc(OC(F)(F)F)cc23)c2ccc(Cl)cc2OC)cc(S(C)(=O)=O)c1` (racemic) [Compound 9, 2-(4-chloro-2-methoxyphenyl)-2-((3-methoxy-5-(methyl-sulfonyl)phenyl)amino)-1-(5-(trifluoromethoxy)-1H-indol-3-yl)ethanone], which EC50 (DENV-2 16681 strain; [4]) is on record?
A: 0.074 nM

Q: What about the CC50 (in vitro [1]) of the same compound?
A: 3100 nM

Q: With `COc1cc(NC(C(=O)c2c[nH]c3cc(OC)ccc23)c2ccc(Cl)cc2OC)cc(S(C)(=O)=O)c1` (single isomer, unassigned) [Compound 3A, 2-(4-chloro-2-methoxyphenyl)-1-(6-methoxy-1H-indol-3-yl)-2-((3-methoxy-5-(methylsulfonyl)phenyl)amino)ethanone] as the compound, how does the EC50 (DENV-2 16681 strain) read?
A: 0.25 nM

Q: What about the EC50 (DENV-4 strain H241; [5]) of the same compound?
A: 110 nM

Q: What about the EC50 (DENV-3 strain H87) of the same compound?
A: 48 nM

Q: And the CC50 (in vitro [1])?
A: 7200 nM

Q: What about the CC50 at 3 days (in vitro [2]) of the same compound?
A: 5500 nM

Q: What about the EC50 (DENV-2 strain 16681; [6]) of the same compound?
A: 0.3 nM

Q: And the EC50 (DENV-1 strain TC974#666)?
A: 4.2 nM

Q: And the EC50 [3]?
A: 3 nM

Q: Which EC50 (DENV-2 16681 strain) does the source give for `COc1cc(NC(C(=O)c2c[nH]c3ccc(C(F)(F)F)cc23)c2ccc(Cl)cc2OC)cc(S(C)(=O)=O)c1` (single isomer, unassigned) [Compound 8B, 2-(4-chloro-2-methoxyphenyl)-2-((3-methoxy-5-(methyl-sulfonyl)phenyl)amino)-1-(5-(trifluoromethyl)-1H-indol-3-yl)ethanone] here?
A: 0.069 nM

Q: What about the EC50 (DENV-4 strain H241; [5]) of the same compound?
A: 15 nM

Q: What about the EC50 (DENV-3 strain H87) of the same compound?
A: 5.8 nM

Q: And the CC50 at 3 days (in vitro [2])?
A: 1900 nM

Q: What about the EC50 (DENV-2 strain 16681; DENV2, Vero, 72 h) of the same compound?
A: 0.31 nM

Q: What about the EC50 (DENV-1 strain TC974#666) of the same compound?
A: 0.45 nM

Q: What about the CC50 (Vero cells) of the same compound?
A: 3400 nM

Q: With `COc1cc(NC(C(=O)c2c[nH]c3ccc(OC(F)(F)F)cc23)c2ccc(Cl)cc2OC)cc(S(C)(=O)=O)c1` (single isomer, unassigned) [Compound 9A, 2-(4-chloro-2-methoxyphenyl)-2-((3-methoxy-5-(methyl-sulfonyl)phenyl)amino)-1-(5-(trifluoromethoxy)-1H-indol-3-yl)ethanone] as the compound, how does the EC50 (DENV-2 16681 strain) read?
A: 0.067 nM

Q: And the EC50 (DENV-4 strain H241; [5])?
A: 12 nM

Q: And the EC50 (DENV-3 strain H87)?
A: 2.1 nM

Q: What about the CC50 at 3 days (in vitro [2]) of the same compound?
A: 1700 nM

Q: And the EC50 (DENV-2 strain 16681; [6])?
A: 0.057 nM

Q: And the EC50 (DENV-1 strain TC974#666)?
A: 0.11 nM

Q: What about the CC50 (Vero cells) of the same compound?
A: 2900 nM

Q: Which EC50 (DENV-2 16681 strain) does the source give for `COc1cc(NC(C(=O)c2c[nH]c3c(C)cc(OC(F)(F)F)cc23)c2ccc(Cl)cc2OC)cc(S(C)(=O)=O)c1` (single isomer, unassigned) [Compound 11A, 2-(4-chloro-2-methoxyphenyl)-2-((3-methoxy-5-(methylsulfonyl)phenyl)amino)-1-(7-methyl-5-(trifluoromethoxy)-1H-indol-3-yl)ethanone] here?
A: 0.085 nM

Q: What about the EC50 (DENV-4 strain H241; DENV4, Vero, 72 h) of the same compound?
A: 11 nM

Q: What about the EC50 (DENV-3 strain H87) of the same compound?
A: 1.2 nM

Q: And the CC50 at 3 days (in vitro [2])?
A: > 2500 nM

Q: And the EC50 (DENV-2 strain 16681; [6])?
A: 0.051 nM

Q: What about the EC50 (DENV-1 strain TC974#666) of the same compound?
A: 0.13 nM

Q: And the CC50 (Vero cells)?
A: 2600 nM

From patent US12172959B2, “Mono- or di-substituted indole derivatives as dengue viral replication inhibitors” (priority 2015, dated 2024)
